Values after ≈ are worked out from the molar mass of the structure shown.
Experiments:
Type in all cases: functional
[1] = tested on: Staphylococcus aureus; experiment: Antibacterial activity against methicillin-resistant Staphylococcus aureus N315 measured by Muller-Hinton broth based microdilution assay
[2] = tested on: Enterococcus faecalis; experiment: Antibacterial activity against Enterococcus faecalis measured by Muller-Hinton broth based microdilution assay
[3] = tested on: Staphylococcus aureus; experiment: Antibacterial activity against Staphylococcus aureus measured by Muller-Hinton broth based microdilution assay
[4] = tested on: Staphylococcus aureus; experiment: Antibacterial activity against Staphylococcus aureus ATCC 25923 measured by Muller-Hinton broth based microdilution assay
[5] = tested on: Staphylococcus aureus; experiment: Antibacterial activity against Staphylococcus aureus ATCC 29213 measured by Muller-Hinton broth based microdilution assay
[6] = tested on: Klebsiella pneumoniae; experiment: Antibacterial activity against Klebsiella pneumoniae measured by Muller-Hinton broth based microdilution assay
[7] = tested on: Escherichia coli; experiment: Antibacterial activity against Escherichia coli measured by Muller-Hinton broth based microdilution assay
[8] = tested on: Pseudomonas aeruginosa; experiment: Antibacterial activity against Pseudomonas aeruginosa measured by Muller-Hinton broth based microdilution assay
[9] = tested on: Acinetobacter baumannii; experiment: Antibacterial activity against Acinetobacter baumannii measured by Muller-Hinton broth based microdilution assay
[10] = tested on: Pseudomonas aeruginosa; experiment: Antibacterial activity against Pseudomonas aeruginosa ATCC 27853 measured by Muller-Hinton broth based microdilution assay
[11] = tested on: Escherichia coli; experiment: Antibacterial activity against Escherichia coli ATCC 25922 measured by Muller-Hinton broth based microdilution assay

Compound	MIC [1]	MIC [2]	MIC [3]	MIC [4]	MIC [5]	MIC [6]	MIC [7]	MIC [8]	MIC [9]	MIC [10]	MIC [11]
O=C1c2cccc3c(N/N=C/c4ccc5ccccc5n4)ccc(c23)C(=O)N1C(CO)CO	2 µg/mL (≈ 4.54 µM)	64 µg/mL (≈ 145 µM)	4 µg/mL (≈ 9.08 µM)	64 µg/mL (≈ 145 µM)	128 µg/mL (≈ 291 µM)	32 µg/mL (≈ 72.7 µM)	4 µg/mL (≈ 9.08 µM)	2 µg/mL (≈ 4.54 µM)	64 µg/mL (≈ 145 µM)	8 µg/mL (≈ 18.2 µM)	64 µg/mL (≈ 145 µM)
O=C1c2cccc3c(N/N=C/c4ccc(F)cc4F)ccc(c23)C(=O)N1C(CO)CO	128 µg/mL (≈ 301 µM)	128 µg/mL (≈ 301 µM)	256 µg/mL (≈ 602 µM)	32 µg/mL (≈ 75.2 µM)	16 µg/mL (≈ 37.6 µM)	128 µg/mL (≈ 301 µM)	256 µg/mL (≈ 602 µM)	256 µg/mL (≈ 602 µM)	256 µg/mL (≈ 602 µM)	256 µg/mL (≈ 602 µM)	256 µg/mL (≈ 602 µM)
O=C1c2cccc3c(N/N=C/c4c[nH]c5ccccc45)ccc(c23)C(=O)N1C(CO)CO	4 µg/mL (≈ 9.34 µM)	64 µg/mL (≈ 149 µM)	8 µg/mL (≈ 18.7 µM)	8 µg/mL (≈ 18.7 µM)	2 µg/mL (≈ 4.67 µM)	64 µg/mL (≈ 149 µM)	64 µg/mL (≈ 149 µM)	4 µg/mL (≈ 9.34 µM)	64 µg/mL (≈ 149 µM)	32 µg/mL (≈ 74.7 µM)	64 µg/mL (≈ 149 µM)
O=C1c2cccc3c(N/N=C/c4ccccc4O)ccc(c23)C(=O)N1C(CO)CO	2 µg/mL (≈ 4.93 µM)	16 µg/mL (≈ 39.5 µM)	16 µg/mL (≈ 39.5 µM)	32 µg/mL (≈ 78.9 µM)	16 µg/mL (≈ 39.5 µM)	4 µg/mL (≈ 9.87 µM)	32 µg/mL (≈ 78.9 µM)	64 µg/mL (≈ 158 µM)	64 µg/mL (≈ 158 µM)	64 µg/mL (≈ 158 µM)	32 µg/mL (≈ 78.9 µM)
O=C1c2cccc3c(N/N=C/c4cc(=O)oc5cc(O)ccc45)ccc(c23)C(=O)N1C(CO)CO	32 µg/mL (≈ 67.6 µM)	128 µg/mL (≈ 270 µM)	4 µg/mL (≈ 8.45 µM)	8 µg/mL (≈ 16.9 µM)	8 µg/mL (≈ 16.9 µM)	4 µg/mL (≈ 8.45 µM)	64 µg/mL (≈ 135 µM)	64 µg/mL (≈ 135 µM)	64 µg/mL (≈ 135 µM)	4 µg/mL (≈ 8.45 µM)	32 µg/mL (≈ 67.6 µM)
C=CCn1cc(/C=N/Nc2ccc3c4c(cccc24)C(=O)N(C(CO)CO)C3=O)c2ccccc21	64 µg/mL (≈ 137 µM)	64 µg/mL (≈ 137 µM)	64 µg/mL (≈ 137 µM)	16 µg/mL (≈ 34.2 µM)	32 µg/mL (≈ 68.3 µM)	4 µg/mL (≈ 8.54 µM)	32 µg/mL (≈ 68.3 µM)	128 µg/mL (≈ 273 µM)	64 µg/mL (≈ 137 µM)	64 µg/mL (≈ 137 µM)	16 µg/mL (≈ 34.2 µM)
O=C1c2cccc3c(N/N=C/c4ncc[nH]4)ccc(c23)C(=O)N1C(CO)CO	64 µg/mL (≈ 169 µM)	64 µg/mL (≈ 169 µM)	32 µg/mL (≈ 84.3 µM)	64 µg/mL (≈ 169 µM)	128 µg/mL (≈ 337 µM)	64 µg/mL (≈ 169 µM)	16 µg/mL (≈ 42.2 µM)	8 µg/mL (≈ 21.1 µM)	64 µg/mL (≈ 169 µM)	4 µg/mL (≈ 10.5 µM)	64 µg/mL (≈ 169 µM)
O=C1c2cccc3c(N/N=C/c4ccc(OC(F)(F)F)cc4)ccc(c23)C(=O)N1C(CO)CO	32 µg/mL (≈ 67.6 µM)	2 µg/mL (≈ 4.22 µM)	4 µg/mL (≈ 8.45 µM)	32 µg/mL (≈ 67.6 µM)	4 µg/mL (≈ 8.45 µM)	2 µg/mL (≈ 4.22 µM)	32 µg/mL (≈ 67.6 µM)	8 µg/mL (≈ 16.9 µM)	16 µg/mL (≈ 33.8 µM)	8 µg/mL (≈ 16.9 µM)	32 µg/mL (≈ 67.6 µM)
O=C1c2cccc3c(N/N=C/c4nccs4)ccc(c23)C(=O)N1C(CO)CO	32 µg/mL (≈ 80.7 µM)	32 µg/mL (≈ 80.7 µM)	64 µg/mL (≈ 161 µM)	16 µg/mL (≈ 40.4 µM)	32 µg/mL (≈ 80.7 µM)	64 µg/mL (≈ 161 µM)	32 µg/mL (≈ 80.7 µM)	32 µg/mL (≈ 80.7 µM)	32 µg/mL (≈ 80.7 µM)	16 µg/mL (≈ 40.4 µM)	32 µg/mL (≈ 80.7 µM)
CCCCCCCCCCn1cc(/C=N/Nc2ccc3c4c(cccc24)C(=O)N(C(CO)CO)C3=O)c2ccccc21	64 µg/mL (≈ 113 µM)	64 µg/mL (≈ 113 µM)	16 µg/mL (≈ 28.1 µM)	16 µg/mL (≈ 28.1 µM)	32 µg/mL (≈ 56.3 µM)	16 µg/mL (≈ 28.1 µM)	32 µg/mL (≈ 56.3 µM)	128 µg/mL (≈ 225 µM)	64 µg/mL (≈ 113 µM)	32 µg/mL (≈ 56.3 µM)	32 µg/mL (≈ 56.3 µM)
O=C1c2cccc3c(N/N=C/c4ccc(O)c(Br)c4)ccc(c23)C(=O)N1C(CO)CO	8 µg/mL (≈ 16.5 µM)	4 µg/mL (≈ 8.26 µM)	16 µg/mL (≈ 33 µM)	64 µg/mL (≈ 132 µM)	64 µg/mL (≈ 132 µM)	16 µg/mL (≈ 33 µM)	64 µg/mL (≈ 132 µM)	64 µg/mL (≈ 132 µM)	64 µg/mL (≈ 132 µM)	16 µg/mL (≈ 33 µM)	32 µg/mL (≈ 66.1 µM)
O=C1c2cccc3c(N/N=C/c4ccc(F)cc4)ccc(c23)C(=O)N1C(CO)CO	64 µg/mL (≈ 157 µM)	64 µg/mL (≈ 157 µM)	64 µg/mL (≈ 157 µM)	32 µg/mL (≈ 78.5 µM)	4 µg/mL (≈ 9.82 µM)	32 µg/mL (≈ 78.5 µM)	64 µg/mL (≈ 157 µM)	8 µg/mL (≈ 19.6 µM)	32 µg/mL (≈ 78.5 µM)	32 µg/mL (≈ 78.5 µM)	64 µg/mL (≈ 157 µM)
O=C(O)c1cn(C2CC2)c2cc(N3CCNCC3)c(F)cc2c1=O [CIPROFLOXACIN]	4 µg/mL (≈ 12.1 µM)	2 µg/mL (≈ 6.04 µM)	2 µg/mL (≈ 6.04 µM)	0.5 µg/mL (≈ 1.51 µM)	8 µg/mL (≈ 24.1 µM)	2 µg/mL (≈ 6.04 µM)	–	–	2 µg/mL (≈ 6.04 µM)	–	–
CN[C@H](CC(C)C)C(=O)N[C@H]1C(=O)N[C@@H](CC(N)=O)C(=O)N[C@H]2C(=O)N[C@H]3C(=O)N[C@H](C(=O)N[C@H](C(=O)O)c4cc(O)cc(O)c4-c4cc3ccc4O)[C@H](O)c3ccc(c(Cl)c3)Oc3cc2cc(c3O[C@@H]2O[C@H](CO)[C@@H](O)[C@H](O)[C@H]2O[C@H]2C[C@](C)(N)[C@H](O)[C@H](C)O2)Oc2ccc(cc2Cl)[C@H]1O [VANCOMYCIN]	–	1 µg/mL (≈ 0.69 µM)	–	–	–	–	–	–	–	–	–
